Patent US20200261375A1, “Use Of (+)-2-Borneol In Preparation Of Drug For Promoting Upregulation Of Expression Of Sphingosine Kinase-1 And/Or BDNF” (SUZHOU PHARMAVAN CO, LTD., priority 2017, published 2020)

How the values were obtained:
Assay type in all cases: in vivo
[1] = tested on: sphingosine kinase-1 (Sphk1); experiment: Rat model of focal cerebral ischemia-reperfusion (MCAO), genome-wide expression profiling of brain tissue around the infarct area: Sphk1; settings: 2 mg/kg once by tail vein injection 2 hours after ischemia-reperfusion, brain tissue around the infarct area 48 hours after reperfusion, relative to the sham-operated group / model group
Method: (§1) Rat model of focal cerebral ischemia-reperfusion A rat model of middle cerebral artery occlusion (MCAD)-induced cerebral ischemia-reperfusion was prepared by thread occlusion of the internal carotid artery. A drug was administered once by tail vein injection 2 hours after ischemia-reperfusion. One dose group was set for (+)-2-borneol, i.e. 2 mg/kg. 48 hours after the cerebral ischemia-reperfusion, about a soybean size of brain tissue around the infarct area was harvested, sent to CapitalBio Technology Inc., Beijing, and subjected to genome-wide expression profiling by using Affymetrix GeneChip Rat Genome 230 2.0 Array Affymetrix Rat (Latin: Rattus norvegicus) Genome 230 2.0 chip.

[2] = tested on: mouse model of focal cerebral motor cortex ischemia; experiment: Mouse model of focal motor cortex ischemia (photochemical), Golgi staining of brain; settings: Golgi staining after the behavior measurements; 3.0, 1.5, 0.75 mg/kg tail vein injection, 14 administrations
Method: (§2) Long-term pharmacodynamic assay of (+)-2-borneol in a mouse model of focal motor cortex ischemia A mouse model of focal cerebral motor cortex ischemia was induced by photochemical method. Three dose groups were set for (+)-2-borneol, i.e. 3.0, 1.5, 0.75 mg/kg, respectively. Edaravone at a dose of 9 mg/kg was used as a positive control. A drug was administered once by tail vein injection 2 hours after cortex ischemia, and then administered every 24 hours, for a total of 14 administrations. A grid test was used to determine respectively the failure rate of forelimb on Day 14, Day 28 and Day 42 after ischemic injury; and a cylinder test was used to determine the motor asymmetry index of the affected forelimb and the contralateral forelimb on Day 14, Day 28 and Day 42 after ischemic injury to determine its effect on motor function. After the behavior measurements, 5 animals were randomly selected from each group and killed, and the brain was harvested for Golgi staining to determine the neuronal survival and dendritic richness in the penumbra area.

[3] = tested on: mouse model of focal cerebral motor cortex ischemia; experiment: Mouse model of focal motor cortex ischemia (photochemical), cylinder test; settings: 3.0, 1.5, 0.75 mg/kg tail vein injection, 14 administrations, Day 14, 28, 42 after ischemic injury
Method: as §2

[4] = tested on: mouse model of focal cerebral motor cortex ischemia; experiment: Mouse model of focal motor cortex ischemia (photochemical), grid test; settings: 3.0, 1.5, 0.75 mg/kg tail vein injection, Day 14, 28, 42 after ischemic injury
Method: as §2

[5] = tested on: brain-derived neurotrophic factor (BDNF); experiment: Rat model of focal cerebral ischemia-reperfusion (MCAO), genome-wide expression profiling of brain tissue around the infarct area: BDNF; settings: 2 mg/kg once by tail vein injection 2 hours after ischemia-reperfusion, brain tissue around the infarct area 48 hours after reperfusion, relative to the sham-operated group
Method: as §1

CC1(C)[C@@H]2CC[C@@]1(C)[C@@H](O)C2 [(+)-2-borneol]
sphingosine kinase-1 (Sphk1) expression up-regulated [1]: 2.64 fold | dendritic length around the ischemic area [2]: significant improvements | dendritic spine density around the ischemic area [2]: significant improvements | number of dendritic branches around the ischemic area [2]: significant improvements | asymmetry index of both forelimbs [3]: significant decreases | motor function of mice with photochemically induced injury ([4]; 14 administrations every 24 hours): significantly improve | failure rate of the left forelimb (affected side) ([4]; grid test, 14 administrations): significant decreases | brain-derived neurotrophic factor (BDNF) expression up-regulated [5]: 2.67 fold
